This is an account of results in paper PMC9431032, “Boosting Cosmeceutical Peptides: Coupling Imidazolium-Based Ionic Liquids to Pentapeptide-4 Originates New Leads with Antimicrobial and Collagenesis-Inducing Activities” (Microbiology Spectrum, 2022).

For assay [1], the system named is S. epidermidis ATCC 14990. The conditions noted are these: broth microdilution in cation-adjusted MHB2, CLSI, n = 3. Here is the method:
(§1) The antimicrobial activity of the IL-KTTKS conjugates was assessed in vitro against reference bacterial strains (American Type Culture Collection, ATCC). The minimal inhibitory concentration (MIC) was determined according to the Clinical and Laboratory Standards Institute (CLSI) guidelines ([28]) against Gram-positive (S. aureus, Enterococcus faecalis) and Gram-negative (Escherichia coli, Pseudomonas aeruginosa) bacteria.
(§2) (i) Antibacterial activity in standard conditions. The test conjugates and reference compounds were evaluated for their activity against three reference strains of Gram-negative bacteria, namely, E. coli (ATCC 25922), Pseudomonas aeruginosa (ATCC 27853), and Klebsiella pneumoniae (ATCC 13883), and the four following reference strains of Gram-positive bacteria, Staphylococcus aureus (ATCC 29213), S. Epidermidis (ATCC 14990), E. faecalis (ATCC 29212), and Streptococcus pyogenes (ATCC 19615). […] MBC values were also determined as previously reported ([52]).
For orientation: In broth dilution the organism is exposed to a series of concentrations in liquid medium.

In assay [2] the test system is S. aureus (ATCC 29213). The settings on record: for MBC: ATCC 29213, 24 h; for MIC: 10^5 CFU/mL, 18 h at 37°C, three independent experiments in triplicates. Here is the method: The antibacterial activity of C16Im-KTTKS and KTTK(C16Im)S was also assessed in simulated wound fluid (SWF) ([35]) against S. aureus (ATCC 29213), to check if it was preserved in this medium.
(ii) Antibacterial activity in simulated wound fluid. […] In parallel, SWF was prepared to a final composition of 50% fetal bovine serum (FBS; Sigma-Aldrich) and 50% peptone water (0.9% NaCl in 0.1% aqueous peptone; Sigma-Aldrich) ([35]). […] MIC values were determined in triplicates and are a result of three independent experiments.

For assay [3], the system named is K. pneumonia ATCC 138830. The assay is described as follows: microbe, parasite or virus in culture. The settings on record: K. pneumonia ATCC 138830; broth microdilution in cation-adjusted MHB2, CLSI; n = 3. The method, then:
as §1, §2

Assay [4] has as its system S. aureus ATCC 29213. Nature of the assay: microbe, parasite or virus in culture. The settings on record: S. aureus ATCC 29213; broth microdilution in cation-adjusted MHB2, CLSI; n = 3. Here is the method:
as §1, §2

The subject of assay [5] is E. faecalis ATCC 29212. The assay is described as follows: microbe, parasite or virus in culture. The settings on record: E. faecalis ATCC 29212; broth microdilution in cation-adjusted MHB2, CLSI; n = 3. The method, then:
as §1, §2

The test system of assay [6] is E. coli ATCC 25922. The assay is described as follows: microbe, parasite or virus in culture. The conditions noted are these: E. coli ATCC 25922; broth microdilution in cation-adjusted MHB2, CLSI; n = 3. The method, then:
as §1, §2

Assay [7] has as its system P. aeruginosa ATCC 27853. The assay is described as follows: microbe, parasite or virus in culture. The conditions noted are these: P. aeruginosa ATCC 27853; broth microdilution in cation-adjusted MHB2, CLSI; n = 3. Here is the method:
as §1, §2

Assay [8] concerns C. albicans ATCC 90028. Nature of the assay: microbe, parasite or virus in culture. The settings on record: C. albicans ATCC 90028, RPMI 1640 with 2% glucose, EUCAST, n = 2. The method, then:
(§3) The MIC values were determined according to the European Committee on Antimicrobial Susceptibility Testing (EUCAST) protocol ([36]) and are shown on Table 4.
(§4) (iii) Antifungal activity.

Assay [9] concerns C. glabrata ATCC 90030. The assay is described as follows: microbe, parasite or virus in culture. The conditions noted are these: C. glabrata ATCC 90030, RPMI 1640 with 2% glucose, EUCAST, n = 2. Here is the method: as §3, §4
Assay [10] deals with C. parapsilosis ATCC 22019. Nature of the assay: microbe, parasite or virus in culture. The conditions noted are these: C. parapsilosis ATCC 22019, RPMI 1640 with 2% glucose, EUCAST, n = 2. The method, then:
as §3, §4

Assay [11] relates to HaCaT cells (human immortalized keratinocytes). The assay is described as follows: cells. The conditions noted are these: 24 h. Format: cell-based. Here is the method:
(§5) The cytotoxicity of KTTK(C16Im)S and C16Im-KTTKS conjugates was assessed on human foreskin fibroblasts (HFF-1) and human immortalized keratinocytes (HaCaT). […] In turn, the parent IL [C16 M1Im][Br] and its […] equimolar mixture with PP4, KTTKS:[C16 M1Im][Br]
(§6) (iv) Toxicity to human cells. HaCat and HFF-1 were seeded at 4 × 10^4cell/mL in 96-well plate using in Dulbecco’s Modified Eagle Medium (DMEM; CLS) supplemented with 2% FBS (Biowest) and 1% of antibiotic/antimycotic solution (100 units/mL of penicillin, 10 mg/mL of streptomycin, and 0.25 mg/mL of amphotericin B, Sigma-Aldrich). The plate was incubated at 37°C in a 5% CO2 atmosphere, and the cells allowed to grow until confluence was reached. Then, solutions of the test compounds in DMEM supplemented with 2% FBS, in a concentration range between 6.3 and 100 μM, were added to the wells. After 24 h of incubation at 37°C in a 5% CO2 atmosphere, the cell viability was assessed through the resazurin reduction assay. Briefly, the medium was removed and then 20 μL of the alamarBlue Cell Viability Reagent (Resazurin sodium salt, Sigma-Aldrich) at 0.15 mg/mL in 100 μL of Hank’s Balanced Salt Solution (HBSS; Sigma-Aldrich) were added to each well; the plate was next incubated for 2 h at 37°C in a 5% CO2 atmosphere, after which fluorescence was read at 560/590 nm on a Flex Station 3 multi-mode microplate reader (Molecular Devices) ([53]). The IC50 values were thus determined using the GraphPad Prism 9.0 software, by applying the equation log(inhibitor) versus response with variable slope (four parameters).

Assay [12] concerns K. pneumoniae (KP010) MDR clinical isolate. The conditions noted are these: n = 3.
The test system of assay [13] is S. aureus (SA007) MDR clinical isolate. The conditions noted are these: for MIC: n = 3.
In assay [14] the test system is P. aeruginosa (PA004) MDR clinical isolate. The settings on record: n = 3.
In assay [15] the test system is human dermal fibroblasts (HDF). Nature of the assay: Collagen production, Sircol kit assay. The settings on record: 5 μM, 48 h, three independent experiments in triplicates, values only in Fig. 3. Format: cell-based. Here is the method: The point of conjugating antimicrobial ILs to a collagenesis-inducing peptide was to afford a simple construct able to exert a dual antimicrobial and skin rebuilding action. Therefore, the two best IL-KTTKS conjugates were further tested for their ability to promote collagen production by human dermal fibroblasts (HDF) in vitro. This was assessed using the Sircol kit assay, whereby the amount of newly formed collagen in the ECM that is deposited in the microwell-plated cell cultures is solubilized in an acidic medium and next quantified through a collagen standard curve according to the Sircol kit assay procedure ([38]). […]
(v) Collagen production in human dermal fibroblasts. The amount of collagen produced by HDF was determined using the SIRCOL Kit Assay (Biocolor) according to the manufacturers’ instructions ([38]). […] Medium was then removed, and quantitation of the newly formed collagen proceeded as follows: collagen was solubilized in cold 0.5 M aqueous acetic acid (Fisher Chemical) and concentrated overnight with deposition of a transparent pellet; after centrifugation, the supernatant was discarded and the pellet was labeled with the SIRCOL dye reagent; after removing the unbound dye with the acid-salt wash reagent, the collagen-bound dye was dissolved with the alkali reagent and absorbance was measured at 555 nm on Flex Station 3 multimode microplate reader. […]

The test system of assay [16] is HFF-1 cells (human foreskin fibroblasts). Format: cell-based. The settings on record: 24 h. The method, then: as §5, §6
The mark [17] stands for this setting: in SWF (50% FBS, 50% peptone water).

The IC50 is the point on the concentration scale where inhibition reaches its midpoint. A low value points to inhibition by little substance.

The structures appear in SMILES notation. Where “and” joins values, the source holds several entries; their conditions need not be identical. Equal entries are not always repeated. Where two headings read alike, the source gives them in different places. Peptide text beside a SMILES is read from it. * marks the point of attachment. X1 = CCCCCCCCCCCCCCCCn1cc[n+](Cc2cn(CC(=O)*)nn2)c1

Turning to `CCCCCCCCCCCCCCCCn1cc[n+](Cc2cn(CCCC[C@H](NC(=O)[C@@H](NC(=O)[C@@H](NC(=O)[C@@H](N)CCCCN)[C@@H](C)O)[C@@H](C)O)C(=O)N[C@@H](CO)C(N)=O)nn2)c1` [KTTK(C16Im)S], the MIC in assay [1] was 5.4 μM and 5.0 μg/mL; in assay [2] (in MHB), 32 µg/mL; in assay [2] (setting [17]), 64 to 128 µg/mL; in [3], 53.8 μM and 49.5 μg/mL; in assay [4], 14.0 μM and 12.9 μg/mL; in assay [5], 32.5 μM and 29.9 μg/mL. Besides, the MIC is 7.0 μM and 6.45 μg/mL in [6]; 32.5 μM and 29.9 μg/mL in assay [7]; 5.4 μM and 5.0 μg/mL in assay [8] (listed as KTTK(C16m)S); 5.4 μM and 5.0 μg/mL in [9] (listed as KTTK(C16m)S); 2.7 μM and 2.5 μg/mL in [10] (listed as KTTK(C16m)S); 21.7 μM and 20.0 μg/mL in [12]. The MIC in assay [13] is 21.7 μM and 20.0 μg/mL; in assay [14], 21.7 μM and 20.0 μg/mL. Besides, the MBC in assay [2] was 32 [64 to 128] μg/mL. Also, the IC50 turned out to be 23.1 ± 1.1 µM in assay [11] and 12.7 ± 1.06 µM in [16]. For the same molecule, the “Collagen synthesis by HDF compared to the negative control” value in assay [15] is “produce more collagen”.
For the molecule `CCCCCCCCCCCCCCCCn1cc[n+](Cc2cn(CC(=O)N[C@@H](CCCCN)C(=O)N[C@H](C(=O)N[C@H](C(=O)N[C@@H](CCCCN)C(=O)N[C@@H](CO)C(N)=O)[C@@H](C)O)[C@@H](C)O)nn2)c1` [Peptide C16Im-KTTKS] (X1-KTTKS-NH2), the MIC in assay [1] was 9.5 μM and 9.3 μg/mL; in assay [2] (in MHB), 16 to 32 µg/mL; in assay [2] (setting [17]) it was 16 to 32 µg/mL; in assay [3] it was 27.4 μM and 26.8 μg/mL; in assay [4], 14.3 μM and 14.0 μg/mL; in assay [5], 28.7 μM and 28.0 μg/mL. The MIC was 14.3 μM and 14.0 μg/mL in assay [6]; 28.7 μM and 28.0 μg/mL in [7]; 4.7 μM and 4.6 μg/mL in assay [8]; 4.7 μM and 4.6 μg/mL in assay [9]; 2.4 μM and 2.3 μg/mL in [10]; 37.9 μM and 37.0 μg/mL in assay [12]. For the same molecule, the MIC in [13] and in assay [14] was 18.5 µg/mL throughout. This molecule displayed an MBC in [2] of 32 to 64 µg/mL. For the same molecule, the IC50 in [11] is 36.6 ± 1.09 µM; in [16], 22.5 ± 1.08 µM. In assay [13], the “MIC relative to that of ciprofloxacin” value was roughly 10 fold. For the same molecule, the “Collagen synthesis by HDF compared to the negative control” value in assay [15] is given as “produce more collagen”.
